Tests used:
FoP-Heps [1] = test: Fatty acid treatment, intracellular lipid accumulation (BODIPY staining) in 3D FoP-Heps; assay type: cell-based, human; conditions: 0.25 mM conjugated with BSA, 7 days, 3D culture from day 20; 4TF eFoP- and iFoP-Heps; BSA control
Procedure: (§1) Forward programmed cells were embedded in 3D from day 20 and cultured for 7 days in Hepatozyme complete medium supplemented with either BSA (control), or oleic acid (0.25 mM) or palmitic acid (0.25 mM) conjugated with BSA. Intracellular lipid accumulation was detected by incubating cells with 1 μl/ml Bodipy (Thermo scientific) for 30 minutes, followed by DAPI (Hoechst) diluted 1:10.000 in PBS for 30 minutes and imaged on a Zeiss LSM 700 confocal microscope.

FoP-Heps [2] = test: Fatty acid treatment, cell viability (Presto Blue) in 3D FoP-Heps; assay type: cell-based, human; conditions: 0.25 mM conjugated with BSA, 7 days, 3D culture from day 20; 4TF FoP-Heps; normalised against BSA control
Procedure: as §1
(§2) Cell viability was determined by incubating cells with 1:10 Presto Blue reagent (Invitrogen) in Hepatozyme complete medium at 37° C. for 4 hours. Fluorescence was measured using the EnVision plate reader with an excitation emission of 560 nm/590 nm.

FoP-Heps [3] = test: APAP toxicity, cell viability (Presto Blue) in 3D FoP-Heps; assay type: cell-based, human; conditions: 25 mM for 48 h (day 18 to day 20), 3D cultures; 4TF FoP-Heps; normalised against untreated
Procedure: The hepatotoxicity of acetaminophen (APAP) was tested by incubating forward programmed cells cultured in 3D from day 15 in Hepatozyme complete medium supplemented with 25 mM acetaminophen (R&D) for 48 h hours (day 18 to day 20) after which cell viability was determined.
as §2

FoP-Heps [4] = test: CYP3A4 activity (P450 Glo) in FoP-Heps treated with exogenous nuclear receptor ligands; conditions: for effect on CYP3A4 activity: vs untreated control, FoP-Heps with 3TFs plus the ligand's nuclear receptor (AR for testosterone, RORc for desmosterol)
Procedure: hPSCs were dissociated into single cells following incubation with StemPro Accutase (Thermo Fisher) for 5 minutes at 37° C. and seeded at a density of 40-50.000 cells/cm2 in E8 medium supplemented with 10 μM ROCK Inhibitor Y-27632 (Selleckchem). E8 medium was replenished the following day. Following 48 h, initial induction of the transgenes was achieved by incubation in E6 medium (E8 without growth factors) supplemented with […] doxycycline (dox) for 24 h. Cells were then maintained in Hepatozyme complete medium supplemented with […] dox for the remaining duration of the protocol. Medium was replenished every day for the next 4 days, and every other day here after. For specific experiments, cell lines were treated with 100 nM of desmosterol, testosterone or […] (E2) from day 2 of forward programming. All ligands were purchased from Sigma-Aldrich and reconstituted in ethanol. For 3D cultures, forward programmed cells were embedded in Matrigel Growth Factor Reduced Basement Membrane Matrix, Phenol Red-free (Corning) at day 15 or day 20 and cultured for 5 days or 10 days, respectively. Cells were dissociated with Hank's based cell dissociation buffer (Gibco) for 20 minutes at 37° C., resuspended in Matrigel and seeded in 40-50 μL domes in Hepatozyme complete medium supplemented with […] dox.
Measurement of CYP3A4 enzymatic activity was performed using the P450 Glo kit (Promega). Cells were incubate with 1:1000 luciferin-IPA in Hepatozyme complete for 1 h at 37° C. Supernatant was mixed with detection reagent in a 1:1 ratio and incubated at RT for 20 minutes in Greiner white 96 well microplates (Sigma Aldrich). Luminescence was measured in triplicate on a GloMax plate reader. Hepatozyme complete medium was used as background control. Relative light units were normalised for background, volume and average total number of cells obtained after differentiation.

[5] = 100 nM ligand from day 2, day 20 of forward programming

CCCCCCCC/C=C\CCCCCCCC(=O)O [OA, oleic acid]
accumulation of lipids (BODIPY staining) (FoP-Heps [1]): strong accumulation of lipids

CCCCCCCCCCCCCCCC(=O)O [PA, palmitic acid]
cell viability (lipotoxicity) (FoP-Heps [2]): reduction in cell viability

CC(=O)Nc1ccc(O)cc1 [acetaminophen]
reduction in cell viability (FoP-Heps [3]): 50%

CC(C)=CCC[C@@H](C)[C@H]1CC[C@H]2[C@@H]3CC=C4C[C@@H](O)CC[C@]4(C)[C@H]3CC[C@]12C [desmosterol]
effect on CYP3A4 activity (FoP-Heps [4]; [5]): no effect

C[C@]12CC[C@H]3[C@@H](CCC4=CC(=O)CC[C@@]43C)[C@@H]1CC[C@@H]2O [testosterone]
effect on CYP3A4 activity (FoP-Heps [4]; [5]): significantly decreased

β-estradiol [p3-estradiol]
increase in CYP3A4 activity (FoP-Heps [4]; 100 nM ligand from day 2, day 20 of forward programming, normalised to untreated control, FoP-Heps with 3TFs plus the ligand's nuclear receptor (ERα)): 3 fold | increase in CYP3A4 activity in 3TFs FoP-Heps (FoP-Heps [4]; 3TFs FoP-Heps without overexpressed nuclear receptor, 100 nM ligand): not observed

— patent US20240409899A1, “PRODUCTION OF HEPATOCYTES” (Cambridge Enterprise Limited (GB/GB), priority 2021, published 2024)
